pIC50: −log10 of the molar value. “Also recorded” adds a separate entry of the source.
Assays:
[1] = Solubility of NPS A in water and organic solvents; assay type: physicochemical
h9c2 cells [2] = experiment: MTT toxicity assay in h9c2 myocardial cells; assay type: cell-based; conditions: 24 hours treatment
Method: In h9c2 cells, myocardial cells, the toxicity of NPS A extracted from Neopetrosia sp. Of Example 1 was confirmed.
The h9c2 cells were dispensed at 2×10^4 cells/well in a 96-well tissue culture plate and cultured for 16 hours. Thereafter, various concentrations of NPS A were treated and cultured for additional 24 hours.
After the culture, a quantitative colorimetric assay using MTT(3-(4,5-dimethylthiazol-2-yl)-2,5-diphenyltetrazolium bromide (Sigma-Aldrich, St. Louis, Mo., USA) was performed to confirm the survival rate of the cells.
The degree of reduction of MTT to intracellular formazan was confirmed by measuring the optical density at 570 nm using a microplate reader (Molecular device, Sunnyvale, Calif., USA).

h9c2 cells [3] = experiment: Oxygen consumption rate (OCR) / ECAR measurement with XF24 analyzer; assay type: cell-based
Method: For this, the basal oxygen consumption rate (OCR), respiratory related to ATP (adenosine triphosphate), proton leak, maximal capacity and mitochondrial OCR were confirmed.
First, to measure OCR, h9c2 cells were dispensed at 2×10^4 cells/well in an XF24 cell plate (Seahorse Bioscience, Billerica, Mass., USA) and cultured for 16 hours. Thereafter, cells were dispensed with various concentrations of NPS A and cultured for another one hour. After 1 hour, the medium was replaced with 500 μL of XF assay medium-modified DMEM (XF Assay Medium-modified DMEM, Seahorse Bioscience, Billerica, Mass., USA) and incubated for 1 hour in a incubator at 37° C. in absence of CO2.
OCR was measured using an XF24 analyzer (Seahorse Bioscience, Billerica, Mass., USA) and XF24 software. After OCR measurement, the XF 24 assay results were normalized to the cell number and the number of cells in each well was counted by a Luna™ automated cell counter (Logos, Annandale, Va., USA).

h9c2 cells [4] = experiment: Mitochondrial ATP level (Mitochondrial ToxGlo assay); assay type: cell-based; conditions: h9c2 cells, 0, 3 or 10 μM NPS A for 1 hour
Method: Furthermore, mitochondrial ATP levels were measured using the Mitochondrial T ToxGlo™ assay (Promega, Madison, Wis., USA) according to the manufacturer's instructions.
Briefly, h9c2 cells were dispensed at 2×10^6 cells/well in a 60 mm tissue culture plate and cultured for 16 hours and treated with 0, 3, or 10 μM NPS A for 1 hour. The treated cells were all collected and resuspended by pipetting until the cells were uniformly dispersed. The resuspended h9c2 cells were dispensed at 2×10^4 cells/well in a 96-well plate and the plates were centrifuged at 200×g for 10 minutes to remove the medium. Thereafter, 50 μL of fresh medium (except for glucose, containing 10 mM galactose) was added.
The cells were incubated in a humidified incubator at 37° C. supplied with CO2 for 90 minutes. Then, the assay solution (100 μL) was added to the plate and reacted at room temperature for 30 minutes. Luminescence was measured using a luminometer (Molecular Device, Sunnyvale, Calif., USA).

h9c2 cells [5] = experiment: Glycolysis activity, capacity and reserve with XF24 analyzer; assay type: cell-based; conditions: 10 μM NPS A compared to 20 μM or 30 μM, 1 hour
Method: After treating h9c2 cells with NPS A, the glycolysis activity, the glycolysis capacity and the glycolysis reserve were confirmed using an XF24 analyzer.
h9c2 cells were treated sequentially with 10 mM glucose (G), 1 μM oligomycin (O) and 10 mM 2-dioxyglucose (2DG), treated with NPS A for 1 hour and then measured with an XF24 analyzer.

[6] = test system: ischemic reperfusion heart model; experiment: Ischemic reperfusion heart model (Langendorff perfused rat heart); assay type: in vivo, SD rats
Method: 8-week-old male SD rats (200-250 g) were anesthetized by intraperitoneal injection of sodium pentobarbital (100 mg/kg). The chest cavity was exposed and a glass cannula was inserted into the aorta. The heart was quickly cut into thoracotomy, perfused with a normal Tyrode's solution in a Langendorff system and equilibrated with 95% O2 and 5% CO2 at 37° C. for 10 min to remove all blood. The heart of the rat was extirpated and the experiment was performed using a non-circulating system. First, ischemic reperfusion (I/R) model and drug treatment group (NPS A treatment; NPS A 10 μM treatment after ischemia reperfusion) were performed and hypoxic solution was flowed for 30 minutes. After 30 minutes, the normal tyrode solution and NPS A were treated together to restore cardiac function and confirm changes in electrocardiogram. […] After global ischemia (initiating reperfusion), 10 μM of NPS A was administered for 30 minutes.

[7] = test system: mitochondria extracted from the heart of rats; experiment: Oxidative phosphorylation in mitochondria extracted from NPS A-treated rat heart; conditions: mitochondria of I/R rat heart, NPS A treatment
[8] = test system: candidate kinases of the first type (cardiovascular diseases); experiment: Kinase screening, set of kinases related to cardiovascular diseases; assay type: biochemical
Source text: (§1) First, kinases regulated by NPS A were screened using a set of kinases related to cardiovascular diseases and diabetes.

[9] = biological target: GSK-3α (Glycogen synthase kinase-3α) (Homo sapiens, UniProt P49840); experiment: Kinase screening and IC50 determination, GSK-3α; assay type: biochemical
Method: as §1
(§2) The activity of GSK-3 alpha, GSK-3 beta and mTOR kinase regulated by NPS A was measured to determine the half maximal inhibition dosage.

GSK-3β = GSK-3β (Homo sapiens, UniProt P49841); experiment: Kinase screening and IC50 determination, GSK-3β; assay type: biochemical
Method: as §1, §2

[10] = biological target: mTOR (mammalian target of rapamycin) (Homo sapiens, UniProt P42345); experiment: Kinase screening and dose-dependence, mTOR; assay type: biochemical
Method: as §1, §2

[11] = kinase screening, kinases related with diabetes

GSK-3β, sequence (P49841 whole entry, species assumed): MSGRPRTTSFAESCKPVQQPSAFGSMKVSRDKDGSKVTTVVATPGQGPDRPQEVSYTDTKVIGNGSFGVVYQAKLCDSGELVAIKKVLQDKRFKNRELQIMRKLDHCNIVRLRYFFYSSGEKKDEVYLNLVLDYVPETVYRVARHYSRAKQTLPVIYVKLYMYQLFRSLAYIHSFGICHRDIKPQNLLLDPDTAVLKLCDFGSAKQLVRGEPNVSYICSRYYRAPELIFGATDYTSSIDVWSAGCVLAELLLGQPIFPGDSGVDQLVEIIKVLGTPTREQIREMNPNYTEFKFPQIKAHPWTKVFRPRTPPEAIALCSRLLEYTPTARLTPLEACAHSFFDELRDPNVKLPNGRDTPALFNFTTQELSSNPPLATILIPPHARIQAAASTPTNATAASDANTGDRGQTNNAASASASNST
GSK-3α (Glycogen synthase kinase-3α), sequence (P49840 whole entry, species assumed): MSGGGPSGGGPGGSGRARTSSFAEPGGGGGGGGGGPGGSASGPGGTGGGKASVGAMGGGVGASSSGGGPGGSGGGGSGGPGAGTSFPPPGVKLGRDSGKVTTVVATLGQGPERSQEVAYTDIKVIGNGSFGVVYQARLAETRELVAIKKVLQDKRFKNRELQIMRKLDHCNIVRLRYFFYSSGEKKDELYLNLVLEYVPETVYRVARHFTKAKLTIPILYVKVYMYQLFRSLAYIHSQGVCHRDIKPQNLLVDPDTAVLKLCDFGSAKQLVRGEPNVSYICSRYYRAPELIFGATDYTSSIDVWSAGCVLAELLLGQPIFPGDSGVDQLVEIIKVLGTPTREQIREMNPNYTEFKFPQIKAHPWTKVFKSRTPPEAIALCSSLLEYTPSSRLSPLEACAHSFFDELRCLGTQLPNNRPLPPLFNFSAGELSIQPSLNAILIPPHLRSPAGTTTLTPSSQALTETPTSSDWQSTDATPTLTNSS

O=C([O-])c1ccc[n+](C2OC(COC(=O)c3ccc(O)cc3)C(O)C2O)c1 (centres unmarked) [NPS A, Neopetroside A]
solubility in other organic solvents ([1]; other organic solvents): not well soluble
solubility in pyridine and methanol ([1]; pyridine and methanol): dissolves in pyridine and methanol
solubility in water ([1]; water): dissolves in water
concentration up to which not toxic to the myocardial cells (MTT survival) (h9c2 cells [2]): ≤ 300 µM
OCR/ECAR ratio (h9c2 cells [3]): increased
basal ECAR (extracellular acidification rate) (h9c2 cells [3]): increased
basal OCR (h9c2 cells [3]; 1 hour treatment): up-regulated; also recorded: increased
mitochondrial OCR (h9c2 cells [3]; 1 hour treatment): up-regulated
oxidative phosphorylation (h9c2 cells [3]; 1 hour treatment): up-regulated
respiration associated with ATP (h9c2 cells [3]; 1 hour treatment): up-regulated
ATP synthesis (h9c2 cells [4]): stimulates; also recorded: up-regulated
intracellular ATP levels (h9c2 cells [4]): increases
glycolysis activity (h9c2 cells [5]): greatest
glycolysis capacity (h9c2 cells [5]): greatest
cardiac rhythm ([6]; 10 μM NPS A during reperfusion): recovered
size of the heart infarction ([6]; 10 μM NPS A during reperfusion): significantly reduced
left ventricular pressure (LV pressure) ([6]; 10 μM NPS A for 30 minutes during reperfusion after 30 minutes global ischemia): effectively restored
respiratory control ratio (RCP) [7]: recovered
three-stage respiratory depression in mitochondria (OCR) [7]: significantly protected
regulation of candidate kinases of the first type [8]: did not regulate most
pIC50 [9]: 3.85
kinase screening result, GSK-3α [9, 11]: inhibited
pIC50 (GSK-3β): 3.91
kinase screening result, GSK-3β (GSK-3β; [11]): inhibited
mTOR activity according to doses of NPS A ([10]; different doses of NPS A): no change
kinase screening result, mTOR [10, 11]: inhibited
